In ChEMBL document CHEMBL1201862, “PubChem BioAssay data set” (2004):
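Cultured in 96-well plates, cells were exposed to test compound for 48 hours across five concentrations. Abbreviation: GI50, concentration required for 50% inhibition of growth.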 Activity calls are given as the source filed them. Cut-off read from the data, not from the text of the source: active = GI50 up to about 1.1 µM and inactive = higher.

Legend:
Test in all cases: DTP human tumour cell line panel, 48 h
UACC-257 = test system: UACC-257
IGROV-1 = test system: IGROV-1
SNB-19 = test system: SNB-19
A549 = test system: A549
OVCAR-8 = test system: OVCAR-8
COLO 205 = test system: COLO 205
K562 = test system: K562
EKVX = test system: EKVX
SK-OV-3 = test system: SK-OV-3
HCT-116 = test system: HCT-116
SK-MEL-5 = test system: SK-MEL-5
CCRF-CEM = test system: CCRF-CEM
HCT-15 = test system: HCT-15
CAKI-1 = test system: CAKI-1
OVCAR-3 = test system: OVCAR-3
OVCAR-5 = test system: OVCAR-5
HT-29 = test system: HT-29
RPMI-8226 = test system: RPMI-8226
SF-268 = test system: SF-268
HCC 2998 = test system: HCC 2998

Measured: GI50

CC(=O)N1C(Nc2cnc3ccccc3c2)CCN1c1ccccc1 (stereo not given)
> 10 µM: HCT-15
inactive: UACC-257 > 10 µM | IGROV-1 > 10 µM | SNB-19 > 10 µM | A549 > 10 µM | OVCAR-8 > 10 µM | COLO 205 > 10 µM | K562 6.58 µM | EKVX > 10 µM | SK-OV-3 > 10 µM | HCT-116 > 10 µM | SK-MEL-5 > 10 µM | CCRF-CEM > 10 µM | CAKI-1 > 10 µM | OVCAR-3 > 10 µM | OVCAR-5 > 10 µM | HT-29 > 10 µM | RPMI-8226 > 10 µM | SF-268 > 10 µM | HCC 2998 > 10 µM

CCCCCCCCCCCC1=C(O)C(=O)C=C(O)C1=O [EMBELIN]
inactive: UACC-257 6.17 µM | IGROV-1 6.76 µM | SNB-19 16.3 µM | A549 4.36 µM | OVCAR-8 2.01 µM | COLO 205 7.5 µM | K562 7.67 µM | EKVX 7.31 µM | SK-OV-3 8.43 µM | HCT-116 9.2 µM | SK-MEL-5 4.84 µM | CCRF-CEM 4.27 µM | CAKI-1 4.26 µM | OVCAR-3 4.71 µM | OVCAR-5 8.83 µM | HT-29 8.15 µM | RPMI-8226 3.81 µM | SF-268 3.92 µM | HCC 2998 4.72 µM
5.11 µM: HCT-15
